Data reported in patent US20250042922A1, “KRAS MODULATING COMPOUNDS” (priority 2023, published 2025).

Columns and labels:
[1] = test system: cellular pERK in ASPC-1 (KRAS G12D) cells; assay: Cell based pERK assay, ASPC-1; conditions: Homo sapiens, ASPC1; ASPC-1 (KRAS G12D), 2 hours incubation, HTRF phospho-ERK1/2; read-out: AsPC1 pERK EC50
Description: (§1) Compounds were tested in a 384-well assay format for their ability to inhibit cellular pERK in Kuramochi (WT KRAS), MIA-PaCa-2 (KRAS-G12C), ASPC-1 (KRAS G12D), and NCI-H441 (KRAS-G12V) cell-lines. Compounds were serially diluted (1:3) in DMSO. On day −1, 80 μL of cells were plated per well in the 384 well tissue-culture plates (Greiner: Cat #781080) to seed 5000 cells per wells of AsPC-1 or 7500 cells of MIA-PaCa-2, NCI-H441, and Kuramochi cell lines in RPMI (Corning: Cat #10-040-CM) with 10% fetal bovine serum (FBS) (HyClone: Cat #SH30071-03) and 1× penicillin-streptomycin-glutamate (PSG) (Corning: Cat #30-009-CI) for […] and Kuramochi cell lines and DMEM (Corning: Cat #15-018-CM) with 10% FBS and 1×PSG for MIA-PaCa-2 cell line. The plates were then incubated overnight at 37° C. and 5% CO2. On day 0, 400 nL of compound/well was added into the cell plates and mixed 5 times by pipetting using a Beckmann Biomek FX. The cell plates were then incubated for 2 hours at 37° C. and 5% CO2. HTRF Advanced Phospho-ERK1/2 (THR202/TYR204) Detection Kits (PerkinElmer: Cat #64AERPEG) were used to prepare the lysis and detection solution according to manufacturer protocol. Following the 2 hour incubation, 70 μL of medium was aspirated from the plates and 10 uL of lysis and detection solution was added to the plates using a Biotek EL406 washer and dispenser. Plates were sealed and stored overnight at room temperature. HTRF ratio (665 nm/615 nm) was read by Envision multimode reader (PerkinElmer) the next day. The TR-FRET ratios were normalized to a positive (saturating concentration of known inhibitor) and negative (DMSO) control and plotted against the log of compound concentration.

[2] = test system: cellular pERK in MIA-PaCa-2 (KRAS-G12C) cells; assay: Cell based pERK assay, MIA-PaCa-2; conditions: Homo sapiens; MIA-PaCa-2 (KRAS-G12C), 2 hours incubation, HTRF phospho-ERK1/2; read-out: MIAPaCa2 pERK EC50
Description: as §1

GDP-loaded KRAS-G12V = GDP-loaded KRAS-G12V (Homo sapiens, UniProt P01116, G12V); assay: KRAS (GDP) biochemical TR-FRET probe displacement assay, G12V; assay type: binding; conditions: 2 hours
Description: (§2) Compounds are tested for binding to GDP-loaded wild-type KRAS (WT), KRAS-G12C, KRAS-G12D, and KRAS-G12V in a 384-well assay format using a TR-FRET probe displacement assay in buffer consisting of 50 mM Hepes (pH 7.4), 150 mM NaCl, 5 mM MgCl2 and 0.005% Tween-20. […] Compounds are serially diluted (1:3) in DMSO. The LabCyte ECHO Acoustic dispenser was used to pre-spot the assay plates (384-well Non-Binding Surface plates, Corning, Catalog #3824) with 50 nL of compound. 5 μL of 2X enzyme concentration is added to the pre-spotted plates and incubated for 30 minutes before adding 5 μL of 2X concentration of Eu-streptavidin and Cy-5 labelled probe (10 μL final reaction volume). The plates are incubated at room temperature for 2 hours before measuring TR-FRET ratio (665 nm/615 nm) on the Envision multimode plate reader. The ratios are normalized to a positive (saturating concentration of known inhibitor) and negative (DMSO) control and plotted against the log of compound concentration.

[3] = test system: cellular pERK in Kuramochi (WT KRAS) cells; assay: Cell based pERK assay, Kuramochi; conditions: Kuramochi (WT KRAS), 2 hours incubation, HTRF phospho-ERK1/2; read-out: Kuramochi pERK EC50
Description: as §1

GDP-loaded KRAS-G12D = GDP-loaded KRAS-G12D (Homo sapiens, UniProt P01116, G12D); assay: KRAS (GDP) biochemical TR-FRET probe displacement assay, G12D; assay type: binding; conditions: 2 hours
Description: as §2

GDP-loaded KRAS-G12C = GDP-loaded KRAS-G12C (Homo sapiens, UniProt P01116, G12C); assay: KRAS (GDP) biochemical TR-FRET probe displacement assay, G12C; assay type: binding; conditions: 2 hours
Description: as §2

[4] = biological target: GDP-loaded wild-type KRAS (WT) (Homo sapiens, UniProt P01116); assay: KRAS (GDP) biochemical TR-FRET probe displacement assay, WT; assay type: binding; conditions: 2 hours
Description: as §2

[5] = test system: cellular pERK in NCI-H441 (KRAS-G12V) cells; assay: Cell based pERK assay, NCI-H441; conditions: Homo sapiens; NCI-H441 (KRAS-G12V), 2 hours incubation, HTRF phospho-ERK1/2; read-out: H441 PERK EC50
Description: as §1

Sequence of GDP-loaded wild-type KRAS (WT) (P01116 1-188 isoform P01116-2): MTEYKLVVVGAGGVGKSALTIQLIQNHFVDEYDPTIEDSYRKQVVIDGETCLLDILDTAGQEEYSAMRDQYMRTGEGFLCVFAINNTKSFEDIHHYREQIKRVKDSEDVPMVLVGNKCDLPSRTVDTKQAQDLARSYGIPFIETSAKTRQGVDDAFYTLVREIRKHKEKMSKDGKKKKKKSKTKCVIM
Sequence of GDP-loaded KRAS-G12D (P01116 1-188 isoform P01116-2 G12D): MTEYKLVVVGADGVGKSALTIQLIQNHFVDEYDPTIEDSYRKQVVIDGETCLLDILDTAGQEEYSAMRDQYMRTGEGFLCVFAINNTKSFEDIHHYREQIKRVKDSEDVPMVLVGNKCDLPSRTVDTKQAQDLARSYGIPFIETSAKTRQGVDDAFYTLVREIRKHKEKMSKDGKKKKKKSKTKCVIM
Sequence of GDP-loaded KRAS-G12V (P01116 1-188 isoform P01116-2 G12V): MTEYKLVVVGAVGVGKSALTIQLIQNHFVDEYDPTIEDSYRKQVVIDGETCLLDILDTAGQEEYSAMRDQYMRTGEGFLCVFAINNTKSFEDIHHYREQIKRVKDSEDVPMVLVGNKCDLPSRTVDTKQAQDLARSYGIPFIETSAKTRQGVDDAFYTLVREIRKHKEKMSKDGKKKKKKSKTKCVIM
Sequence of GDP-loaded KRAS-G12C (P01116 1-188 isoform P01116-2 G12C): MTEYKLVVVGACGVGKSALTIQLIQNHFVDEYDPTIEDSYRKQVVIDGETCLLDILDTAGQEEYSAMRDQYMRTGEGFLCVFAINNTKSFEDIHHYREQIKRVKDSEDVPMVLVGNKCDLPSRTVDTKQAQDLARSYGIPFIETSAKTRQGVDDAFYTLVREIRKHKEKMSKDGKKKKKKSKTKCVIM

With `C#Cc1c(F)ccc2cccc(-c3nc4c5c(nc(OCC67CCCN6CCC7)nc5c3F)N3C[C@@]5(F)CC[C@](F)(N5)[C@H]3CCC4)c12` [Example 4-29, (6aR,7R,10S)-2-(8-ethynyl-7-fluoronaphthalen-1-yl)-1,7,10-trifluoro-13-((tetrahydro-1H-pyrrolizin-7a(5H)-yl)methoxy)-5,6,6a,7,8,9,10,11-octahydro-4H-3,11a,12,14,15-pentaaza-7,10-methanocyclohepta[4,5]cycloocta[1,2,3-de]naphthalene] the EC50 [1] was 305 nM, the EC50 [2] was 12.8 nM and the IC50 (GDP-loaded KRAS-G12V) was 24.8 nM. For the same compound, the EC50 [3] was 6.37 nM, the IC50 (GDP-loaded KRAS-G12D) was 38.1 nM and the IC50 (GDP-loaded KRAS-G12C) was 8.68 nM. It also gave an IC50 [4] of 5.99 nM.

`C#Cc1c(F)ccc2cc(N)cc(-c3nc4c5c(nc(OC[C@@H]6CCCN6C)nc5c3F)N3C[C@@]5(F)CC[C@](F)(N5)[C@H]3CCC4)c12` [Example 4-8, 5-ethynyl-6-fluoro-4-((6aR,7R,10S)-1,7,10-trifluoro-13-(((S)-1-methylpyrrolidin-2-yl)methoxy)-5,6,6a,7,8,9,10,11-octahydro-4H-3,11a,12,14,15-pentaaza-7,10-methanocyclohepta[4,5]cycloocta[1,2,3-de]naphthalen-2-yl)naphthalen-2-amine] showed an EC50 [1] of 169 nM, an EC50 [2] of 6.73 nM and an IC50 (GDP-loaded KRAS-G12V) of 34.7 nM. The EC50 [3] was 5.11 nM, the IC50 (GDP-loaded KRAS-G12D) was 57.8 nM and the IC50 (GDP-loaded KRAS-G12C) was 13.2 nM. For the same compound, the IC50 [4] was 6.19 nM.

`C#Cc1c(F)ccc2cc(N)cc(-c3nc4c5c(nc(OC[C@@]67CCCN6[C@H](COC(C(F)(F)F)(C(F)(F)F)C(F)(F)F)CC7)nc5c3F)N3C[C@@]5(F)CC[C@](F)(N5)[C@H]3CCC4)c12` [Example 4-28, 5-ethynyl-6-fluoro-4-((6aR,7R,10S)-1,7,10-trifluoro-13-(((3S,7aS)-3-(((1,1,1,3,3,3-hexafluoro-2-(trifluoromethyl)propan-2-yl)oxy)methyl)tetrahydro-1H-pyrrolizin-7a(5H)-yl)methoxy)-5,6,6a,7,8,9,10,11-octahydro-4H-3,11a,12,14,15-pentaaza-7,10-methanocyclohepta[4,5]cycloocta[1,2,3-de]naphthalen-2-yl)naphthalen-2-amine] was tested, and the EC50 [1] was 117 nM, the EC50 [2] was 5.6 nM and the IC50 (GDP-loaded KRAS-G12V) was 44.8 nM. It also gave an EC50 [3] of 7.5 nM, an IC50 (GDP-loaded KRAS-G12D) of 59.4 nM and an IC50 (GDP-loaded KRAS-G12C) of 7.3 nM. It also gave an IC50 [4] of 4.98 nM.

Work on `C[C@H]1Cc2nc(-c3cc(N)cc4ccc(F)c(F)c34)c(F)c3nc(OCC45CCCN4CCC5)nc(c23)N2C[C@@]3(F)CC[C@](F)(N3)[C@H]12` [Example 5-1, 5,6-difluoro-4-((5S,5aS,6R,9S)-1,6,9-trifluoro-5-methyl-12-((tetrahydro-1H-pyrrolizin-7a(5H)-yl)methoxy)-4,5,5a,6,7,8,9,10-octahydro-3,10a,11,13,14-pentaaza-6,9-methanonaphtho[1,8-ab]heptalen-2-yl)naphthalen-2-amine] yielded an EC50 [1] of 62.5 nM, an EC50 [2] of 2.34 nM and an IC50 (GDP-loaded KRAS-G12V) of 7.42 nM. The EC50 [3] was 2.2 nM, the IC50 (GDP-loaded KRAS-G12D) was 16 nM and the IC50 (GDP-loaded KRAS-G12C) was 1.71 nM. For the same compound, the IC50 [4] was 0.271 nM.

Work on `C#Cc1c(F)ccc2cc(N)cc(-c3nc4c5c(nc(OC[C@]6(C)CN(C)CC/C6=C\F)nc5c3F)N3C[C@@]5(F)CC[C@](F)(N5)[C@@H]3[C@@H](C)C4)c12` [Example 4-39, 5-ethynyl-6-fluoro-4-((5S,5aS,6R,9S)-1,6,9-trifluoro-12-(((S,E)-4-(fluoromethylene)-1,3-dimethylpiperidin-3-yl)methoxy)-5-methyl-4,5,5a,6,7,8,9,10-octahydro-3,10a,11,13,14-pentaaza-6,9methanonaphtho[1,8-ab]heptalen-2-yl)naphthalen-2-amine] yielded an EC50 [1] of 6.04 nM, an EC50 [2] of 0.253 nM and an IC50 (GDP-loaded KRAS-G12V) of 0.583 nM. The EC50 [3] was 3.76 nM, the EC50 [5] was 0.689 nM and the IC50 (GDP-loaded KRAS-G12D) was 1.12 nM. It also gave an IC50 (GDP-loaded KRAS-G12C) of 0.383 nM.

`C#Cc1c(F)ccc2cc(N)cc(-c3nc4c5c(nc(OC[C@@]67CCCN6C[C@H](F)C7)nc5c3F)N3C[C@@]5(F)CC[C@](F)(N5)[C@@H]3CC4)c12` [Example 4-19, 5-ethynyl-6-fluoro-4-((5aS,6R,9S)-1,6,9-trifluoro-12-(((2R,7aS)-2-fluorotetrahydro-1H-pyrrolizin-7a(5H)-yl)methoxy)-4,5,5a,6,7,8,9,10-octahydro-3,10a,11,13,14-pentaaza-6,9-methanonaphtho[1,8-ab]heptalen-2-yl)naphthalen-2-amine] gave an EC50 [1] of 5.17 nM, an EC50 [2] of 0.235 nM and an EC50 [3] of 0.92 nM. The EC50 [5] was 1.08 nM.

For `Nc1cc(-c2nc3c4c(nc(OCC56CCCN5CCC6)nc4c2F)N2C[C@@]4(F)CC[C@](F)(N4)[C@H]2CCC3)c2c(F)c(F)ccc2c1` [Example 5-4, 5,6-difluoro-4-[(4S,7R,8R)-4,7,15-trifluoro-18-(1,2,3,5,6,7-hexahydropyrrolizin-8-ylmethoxy)-2,13,17,19,21-pentazapentacyclo[10.7.1.14,7.02,8.016,20]henicosa-1(19),12(20),13,15,17-pentaen-14-yl]naphthalen-2-amine], the EC50 [1] was 416 nM, the EC50 [2] was 28.7 nM and the EC50 [3] was 5.01 nM. The EC50 [5] was 104 nM.

`C#Cc1c(F)ccc2cc(O)cc(-c3nc4c5c(nc(OC[C@@]67CCCN6C[C@H](F)C7)nc5c3F)N3C[C@@]5(F)CC[C@](F)(N5)[C@H]3CCC4)c12` [Example 4-1, 5-ethynyl-6-fluoro-4-((6aR,7R,10S)-1,7,10-trifluoro-13-(((2R,7aS)-2-fluorotetrahydro-1H-pyrrolizin-7a(5H)-yl)methoxy)-5,6,6a,7,8,9,10,11-octahydro-4H-3,11a,12,14,15-pentaaza-7,10-methanocyclohepta[4,5]cycloocta[1,2,3-de]naphthalen-2-yl)naphthalen-2-ol] gave an EC50 [1] of 1.34 nM, an EC50 [2] of 0.49 nM and an EC50 [3] of 1.4 nM. For the same compound, the EC50 [5] was 0.17 nM.

`C#Cc1c(F)ccc2cc(N)cc(-c3nc4c5c(nc(OCC67CCCN6CCC7)nc5c3F)N3C[C@@]5(F)CC[C@](F)(N5)[C@@H]3CC4)c12` [Example 4-34, 5-ethynyl-6-fluoro-4-((5aS,6R,9S)-1,6,9-trifluoro-12-((tetrahydro-1H-pyrrolizin-7a(5H)-yl)methoxy)-4,5,5a,6,7,8,9,10-octahydro-3,10a,11,13,14-pentaaza-6,9-methanonaphtho[1,8-ab]heptalen-2-yl)naphthalen-2-amine] gave an EC50 [1] of 20.9 nM, an EC50 [2] of 0.511 nM and an EC50 [3] of 3.34 nM. It also gave an EC50 [5] of 2.75 nM.

With `C#Cc1c(F)ccc2cc(N)cc(-c3nc4c5c(nc(OC[C@@]67CCCN6CC(=C)C7)nc5c3F)N3C[C@@]5(F)CC[C@](F)(N5)[C@@H]3[C@@H](C)C4)c12` [Example 4-40, 5-ethynyl-6-fluoro-4-((5S,5aS,6R,9S)-1,6,9-trifluoro-5-methyl-12-(((S)-2-methylenetetrahydro-1H-pyrrolizin-7a(5H)-yl)methoxy)-4,5,5a,6,7,8,9,10-octahydro-3,10a,11,13,14-pentaaza-6,9-methanonaphtho[1,8-ab]heptalen-2-yl)naphthalen-2-amine] the EC50 [1] was 0.71 nM, the EC50 [2] was 0.067 nM and the EC50 [3] was 1.65 nM. The EC50 [5] was 0.38 nM.
